Source: paper doi:10.1101/2021.04.29.441652v1 (biorxiv, 2021)

Molecular target: human σ2 receptor (TMEM97) (Homo sapiens, UniProt Q5BJF2)
Assay: biochemical
Type: Expi293 membranes
Conditions: read-out: % of control remaining

human σ2 receptor (TMEM97), sequence (Q5BJF2 whole entry): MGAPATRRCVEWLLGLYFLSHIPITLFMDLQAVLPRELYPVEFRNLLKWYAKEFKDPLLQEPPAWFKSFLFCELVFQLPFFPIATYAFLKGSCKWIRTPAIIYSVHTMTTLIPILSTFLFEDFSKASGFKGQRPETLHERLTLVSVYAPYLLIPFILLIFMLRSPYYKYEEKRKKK

Row | remaining activity at 1 µM [%] | Compound
1 | 106 | Cc1cc(N(C)C)ccc1CNC(=O)C(=O)NC[C@@H]1COCCN1 [ZINC000861751799]
2 | 179 | CCC1(N2CCOCC2)CCN(C(=O)C2=NN(C)C(=O)CC2)CC1 [ZINC000863492725]
3 | 204 | CN1CCN(C2CCN(c3nc(N)c4ccccc4n3)CC2)CC1 [ZINC000866213504]
4 | 76.2 | C[C@H]1CCC[C@H](NC(=O)C(=O)N2CCC(N3CCN(C)CC3)CC2)CC1 [ZINC000875242850]
5 | 27.7 | O[C@@H](CN1CC[C@@H](c2ccccc2F)C1)CC1(O)CCCCC1 [ZINC000878084395]
6 | 113 | NC(=O)C1(N2CCCCC2)CCN(CC(=O)NCC2CCC2)CC1 [ZINC000880249690]
7 | 110 | C=CCC1(O)CCN([C@H](C)C(=O)N[C@@H](C)c2ccc(Cl)cc2)CC1 [ZINC000886762228]
8 | 24.1 | Cc1cc(C(=O)CN2CC[C@@H]([C@H]3CCCO3)C2)c(C)n1C1CC1 [ZINC000886836194]
9 | 116 | CO[C@@H]1CN(C(=O)NCc2ccnc(N3CCN(C)CC3)c2)CCO1 [ZINC000891830660]
10 | 99.5 | CC[C@H](CO)N1CCN(c2cc(Cl)c3cnn(C)c3n2)CC1 [ZINC000892713700]
11 | 95.1 | Cc1cccc2sc(N3CCN(CCO)[C@H](C)C3)nc12 [ZINC000893277758]
12 | 35 | CC[C@@H](C)N1CCN(c2nc(N)nc(C(F)(F)C(F)(F)F)n2)CC1 [ZINC000894101819]
13 | 38.7 | CCC(C)(C)N1CCN(c2nc(N)nc(C(F)(F)C(F)(F)F)n2)CC1 [ZINC000894427229]
14 | 33.6 | CCC(C)(C)N1CCN(c2cc(C(F)F)ncn2)CC1 [ZINC000894429059]
15 | 90.9 | C[C@@H]1CCCN1CCNC(=O)N1CCC[C@@H]1[C@@H]1CCCC[C@@]1(C)O [ZINC000897504395]
16 | 5.1 | FC(F)(F)c1ccnc([C@H]2CCN(C[C@@H]3C[C@H]3c3ccccc3)C2)n1 [ZINC000897616680]
17 | 92.2 | O=C(CN[C@H]1CCNC12CCC2)NCCN1CCc2ccccc21 [ZINC000903470913]
18 | 127 | C[C@@H]1CN(C(=O)C2CN(C)CCN(C)C2)CC(C)(C)O1 [ZINC000906421824]
19 | 119 | CS(=O)(=O)N1CC(C(=O)N2CC(=O)N(CC(F)(F)F)C2)C1 [ZINC000907721339]
20 | 45.5 | CC(C)(CN1C(=O)N2CCC[C@@H]3C[C@@]32C1=O)N1CCc2ccccc2C1 [ZINC000924470947]
21 | 104 | O=C1CCCCN1C1CCN(C[C@H](O)C[C@]2(O)CCOC2)CC1 [ZINC000929842198]
22 | 75.9 | O=C1[C@@H](N2CC[C@@H](C3OCCO3)C2)CCN1c1cccc(Br)c1 [ZINC000932000298]
23 | 69.5 | CCOC(=O)[C@@H]1CCN(C[C@@H](O)COc2cccc(C)c2)C1 [ZINC000932649435]
24 | 34 | O[C@H](CN1CC[C@@H](Cc2nccs2)C1)c1c(F)cccc1F [ZINC000934332177]
25 | 82.7 | C[C@H]1CCCN1CC(=O)N(C)[C@H]1CCN(C(=O)C2CCOCC2)C1 [ZINC000936344871]
26 | 111 | C[C@H]1CCCN1CC(=O)N(C)[C@H]1CCN(C(=O)CC(C)(C)O)C1 [ZINC000937267298]
27 | 107 | Cc1nc(C)c(CC(=O)N2CC[C@H](NC(=O)c3cnn[nH]3)C2)c(O)n1 [ZINC000938242679]

Row | remaining activity at 1 µM [%] | Compound
28 | 111 | Cc1cc(NC(=O)C(=O)N2CC[C@@H](NC(=O)c3cncn3C)C2)no1 [ZINC000941361883]
29 | 89.4 | Cn1nc(C(=O)N[C@@H]2CCN(C(=O)Cc3cscn3)C2)ccc1=O [ZINC000942457739]
30 | 112 | CCN1CC[C@@H](NC(=O)c2ccnc(-n3cncn3)c2)C[C@@H]1C [ZINC000948091407]
31 | 108 | Cc1cc(C)nc(C(=O)N2CC[C@H]2CNC(=O)[C@@H]2CCN(C)C2)c1 [ZINC000950078544]
32 | 111 | CN(C(=O)c1cccnn1)C1CN(C(=O)[C@H]2CCC[C@H]3CCCN32)C1 [ZINC000955102158]
33 | 96.9 | CN(C(=O)c1c[nH]c(=O)cn1)C1CN(C(=O)c2n[nH]c3c2CCC3)C1 [ZINC000955144887]
34 | 112 | CCC(=O)N1CCN([C@H]2CCN(C(=O)c3c[nH]c(=O)cn3)C2)CC1 [ZINC000956566890]
35 | 33 | O=C(C1CCCC1)N1CCC[C@H]([C@@H]2CCN(C/C=C\Cl)C2)C1 [ZINC000961091031]
36 | 91.1 | Cc1c(C(=O)N[C@@H]2CN(C(=O)C3=COCCC3)C[C@@H]2O)cnn1C [ZINC000961583379]
37 | 99.1 | O=C([C@H]1CCOC1)N1CCOC2(C1)CN(C(=O)[C@@]1(F)CCOC1)C2 [ZINC000965338365]
38 | 94.6 | CCc1c(C(=O)N[C@@H]2CN(C(=O)c3n[nH]cc3C)C[C@@H]2O)cnn1C [ZINC000968717635]
39 | 92.8 | COc1ccc(C(=O)N[C@@H]2CN(C(=O)C3(C)CCC3)C[C@@H]2O)nn1 [ZINC000970553575]
40 | 90.9 | Cc1cc(C(=O)N2CC[C@H](N(C)Cc3ccc(C)c(C)c3)C2)on1 [ZINC000971070823]
41 | 63.4 | CN(C[C@H]1CCCCO1)[C@@H]1CCN(C(=O)c2nc(Cl)cs2)C1 [ZINC000972168981]
42 | 111 | COCCN1C[C@H](C(=O)N[C@H]2C[C@H](NC(=O)c3cn[nH]c3)C2)CC1=O [ZINC000973057271]
43 | 111 | C[C@@H]1CCN(CC(=O)N[C@H]2C[C@H](NC(=O)c3cnnc(O)c3)C2)C1 [ZINC000973375109]
44 | 97.2 | Cn1nncc1C(=O)NC[C@H]1CC[C@@H](NC(=O)c2cnns2)C1 [ZINC000981250423]
45 | 48.4 | O=C(C1CC2(CCC2)C1)N1CCCN(C[C@@H](O)c2ccccc2)CC1 [ZINC000981787500]
46 | 104 | CC(C)=CC(=O)N1CC[C@@H](CNC(=O)c2ccn(CCN(C)C)n2)C1 [ZINC000982403760]
47 | 118 | CCn1ncnc1CN1CCCN(C(=O)C[C@H]2CC(=O)NC2=O)CC1 [ZINC000989806749]
48 | 116 | CCc1noc(C)c1C(=O)NC1CN(C(=O)[C@H]2CCCCN2C)C1 [ZINC000991393621]
49 | 123 | Cc1c(C(=O)NC2CN(C(=O)c3cnns3)C2)ccc2cncn12 [ZINC000995014137]
50 | 102 | CN1CC[C@H](C(=O)NC2CN(C(=O)Cc3ccc(F)cn3)C2)CC1=O [ZINC000995125582]
51 | 114 | CC(C)NC1CCN(C(=O)Cn2cnc(C(N)=O)n2)CC1 [ZINC000996610565]
52 | 87.9 | Cc1n[nH]cc1C(=O)NC1CN(C(=O)[C@H]2C[C@@H]3CCCCN3C2)C1 [ZINC000997292482]
53 | 98.3 | Cc1cnoc1C(=O)NC1CN(C(=O)[C@@H]2CCN(C)S2(=O)=O)C1 [ZINC000998978244]

Row | Compound | remaining activity at 1 µM [%]
54 | Cc1ccc(NC(=O)C23CCC(CC2)N3)cc1[N+](=O)[O-] [ZINC000911907143] | 93.1
55 | CCn1ncc2c1CCC[C@@H]2N[C@@H](C)Cc1ccccn1 [ZINC000925887162] | 27.4
56 | Cc1csc2nc(CN[C@](C)(CO)Cc3ccc(F)cc3)cc(=O)n12 [ZINC000933438523] | 28.1
